The results in this text go back to patent US10993437B2, “Anti-microbial polymer incorporating a quaternary ammonium group” (priority 2013, dated 2021).

What all share (assay type): cell-based
One test relates to Escherichia coli. The test can be described thus: Antibiotic disk susceptibility test, rings of inhibition. Conditions: for E. coli, diameter of ring of inhibition: Mueller-Hinton plate, 18-24 hrs at 37° C., 100 μg of compound per disc, control discs 10 or 30 μg; for E. coli, diameter of ring of inhibition, antimicrobial paper towels: 6 mm paper discs punched from paper towels, antibiotic control discs 10 or 30 ug. The protocol: (§1) Compounds were tested for antibacterial activity, as described in Ma et al. (2011), against pure cultures of Escherichia coli, Pseudomonas aeruginosa, Bacillus cereus, Proteus mirabilis/hauseri, and Staphylococcus aureus, supplied by Ward's Natural Science Ltd. (St. Catherines, Ontario, Canada). All cultures were maintained on Tryptic Soy agar. These cultures were then transferred using an inoculation loop to 10 mL of Tryptic soy broth, and grown at 37° C. for 24 hours. Triplicates of plate and broth cultures were made in case of error or contamination. Using a sterile swab, and aseptic techniques, the bacterial broth inocula were transferred to Mueller-Hinton plates and spread evenly, ensuring that the entire surface was inoculated. They were then left to dry for 3-5 minutes. The following control discs were used: Penicillin (10 μg), Tetracycline (30 μg), Chloramphenicol (30 μg), and Ampicillin (10 μg). Four antibiotic discs containing different compounds were placed equidistant from each other on a Mueller-Hinton plate. […] If clear rings of inhibition were present, the diameter was measured twice using a caliper. […] The paper towels were then allowed to dry. After, 5 cm from each edge of the paper towels was cut out (to prevent edge areas where spraying might have been irregular being tested), and from the remaining paper towels, a single hole punch machine was used to punch 6 mm paper discs from each of the paper towels.

The test system of a further test is Pseudomonas aeruginosa. Described as above. Conditions: for P. aeruginosa, diameter of ring of inhibition: Mueller-Hinton plate, 18-24 hrs at 37° C., 100 μg of compound per disc, control discs 10 or 30 μg. The protocol: as §1
The subject of test [1] is Proteus mirabilis/hauseri. Described as above. Conditions: for P. hauseri, diameter of ring of inhibition: Mueller-Hinton plate, 18-24 hrs at 37° C., 100 μg of compound per disc, control discs 10 or 30 μg; for P. hauseri, diameter of ring of inhibition, antimicrobial paper towels: 6 mm paper discs punched from paper towels, antibiotic control discs 10 or 30 ug. The protocol:
as §1

The next test has as its system Staphylococcus aureus. The description is as above. Particulars: for S. aureus, diameter of ring of inhibition: Mueller-Hinton plate, 18-24 hrs at 37° C., 100 μg of compound per disc, control discs 10 or 30 μg; for S. aureus, diameter of ring of inhibition, antimicrobial paper towels: 6 mm paper discs punched from paper towels, antibiotic control discs 10 or 30 ug. The protocol: as §1

The test system of a further test is Bacillus cereus. Described as above. Conditions: for B. cereus, diameter of ring of inhibition: Mueller-Hinton plate, 18-24 hrs at 37° C., 100 μg of compound per disc, control discs 10 or 30 μg; for B. cereus, diameter of ring of inhibition, antimicrobial paper towels: 6 mm paper discs punched from paper towels, antibiotic control discs 10 or 30 ug. The protocol: as §1

A further test relates to Saccharomyces cerevisiae. In words: Antifungal disk susceptibility test, rings of inhibition. Particulars: for S. cerevisiae, diameter of ring of inhibition: Sabouraud plate, 18-24 hrs at 37° C., 100 μg of compound per disc, Amphotericin B 50 ug or 20 μg. The protocol: (§2) Adapted from Messer et al., (2007), this protocol was used to test novel compounds for antifungal properties against yeasts and fungi. Compounds were tested for antifungal activity against pure cultures of Saccharomyces cerevisiae, Candida albicans supplied by Ward's Natural Science Ltd. and Aspergillus niger and Aspergillus fumigatus supplied by […]. (Inverness Medical, Ottawa, Ontario, Canada). All cultures were maintained on Sabouraud agar. […] The cultures of A. niger and A. fumigatus were transferred, using an inoculation loop, to new Sabouraud agar and grown for 48 hrs. at 27° C., and 35° C. respectively, to cause sporulation. Triplicates of all the plates and broth cultures were made in case of error or contamination. Using a sterile swab, and aseptic techniques, the cell suspension of S. cerevisiae, and C. albicans were transferred to Sabouraud agar plates and spread evenly, ensuring that the entire surface was inoculated. They were then left to dry for 10 minutes. […] The 0.2% Tween 80 reduces the hydrophobicity of the conidia, allowing the spores to be readily suspended (Messer et al., 2007). Alternatively two small circles containing fungal growth of the A Niger or A Fumigatus fungi were cut from the agar plates, and using a glass/PTFE tissue homoginzer, were mixed and homogenized with 5 ml of sterile MilliQ water to create a suspension of fungal spores. Using a sterile swab, and aseptic techniques, the spore inocula of A. niger and A. fumigatus were transferred to Sabouraud agar plates and spread evenly, ensuring that the entire surface was inoculated. They were then left to dry for 10 minutes. […] Four antibiotic discs containing different compounds were place equidistant apart on each Sabouraud plate. […] If clear rings of inhibition were present, the diameter was measured twice using a caliper. Halos indicated partial inhibition of growth (Hicks et al., 2008). […] The paper towels were then allowed to dry. After, 5 cm from each edge of the paper towels was cut out (to prevent edge areas where spraying might have been irregular being tested), and from the remaining paper towels, a single hole punch machine was used to punch 6 mm paper discs from each of the paper towels.

Another test relates to Candida albicans. The test is described as above. Particulars: for C. albicans, diameter of ring of inhibition: Sabouraud plate, 18-24 hrs at 37° C., 100 μg of compound per disc, Amphotericin B 50 ug or 20 μg. The protocol:
as §2

Another test concerns Aspergillus fumigatus. The test is described as above. Particulars: for A. fumigatus, diameter of ring of inhibition: Sabouraud plate, 18-24 hrs at 35° C., 100 μg of compound per disc, Amphotericin B 100 ug or 20 μg. The protocol:
(§3) Adapted from Messer et al., (2007), this protocol was used to test novel compounds for antifungal properties against yeasts and fungi. Compounds were tested for antifungal activity against pure cultures of Saccharomyces cerevisiae, Candida albicans supplied by Ward's Natural Science Ltd. and Aspergillus niger and Aspergillus fumigatus supplied by […]. (Inverness Medical, Ottawa, Ontario, Canada). All cultures were maintained on Sabouraud agar. […] The cultures of A. niger and A. fumigatus were transferred, using an inoculation loop, to new Sabouraud agar and grown for 48 hrs. at 27° C., and 35° C. respectively, to cause sporulation. Triplicates of all the plates and broth cultures were made in case of error or contamination. Using a sterile swab, and aseptic techniques, the cell suspension of S. cerevisiae, and C. albicans were transferred to Sabouraud agar plates and spread evenly, ensuring that the entire surface was inoculated. They were then left to dry for 10 minutes. […] The 0.2% Tween 80 reduces the hydrophobicity of the conidia, allowing the spores to be readily suspended (Messer et al., 2007). Alternatively two small circles containing fungal growth of the A Niger or A Fumigatus fungi were cut from the agar plates, and using a glass/PTFE tissue homoginzer, were mixed and homogenized with 5 ml of sterile MilliQ water to create a suspension of fungal spores. Using a sterile swab, and aseptic techniques, the spore inocula of A. niger and A. fumigatus were transferred to Sabouraud agar plates and spread evenly, ensuring that the entire surface was inoculated. They were then left to dry for 10 minutes. Amphotericin B (100 μg) in acetone was used as a control. Four antibiotic discs containing different compounds were place equidistant apart on each Sabouraud plate. […] If clear rings of inhibition were present, the diameter was measured twice using a caliper. Halos indicated partial inhibition of growth (Hicks et al., 2008). […] The paper towels were then allowed to dry. After, 5 cm from each edge of the paper towels was cut out (to prevent edge areas where spraying might have been irregular being tested), and from the remaining paper towels, a single hole punch machine was used to punch 6 mm paper discs from each of the paper towels.

The next test concerns Aspergillus niger. The test is described as above. Conditions: for A. niger, diameter of ring of inhibition: Sabouraud plate, 48 hrs at room temperature, 100 μg of compound per disc, Amphotericin B 100 ug or 20 μg. The protocol:
as §3

[2] abbreviates: 6 mm paper discs punched from paper towels, PAA-BZ-H 100 μg of solution onto paper discs, Amphotericin B 20 ug.

In the case of `CCCCCCCCCCCCCC[N+](C)(C)Cc1ccccc1.[Cl-]` [Compound 15, Benzyldimethyltetradecylammonium chloride], the “E. coli, diameter of ring of inhibition” value in the test on Escherichia coli was found to be 12.70. Moreover, the “P. aeruginosa, diameter of ring of inhibition” value in the test with Pseudomonas aeruginosa is given as 8.13. The “P. hauseri, diameter of ring of inhibition” value in test [1] is listed as 12.63. The “S. aureus, diameter of ring of inhibition” value with Staphylococcus aureus worked out at 13.43. Moreover, the “B. cereus, diameter of ring of inhibition” value in the test with Bacillus cereus is reported as 14.30. Besides, the “S. cerevisiae, diameter of ring of inhibition” value with Saccharomyces cerevisiae was 11.33. For the same compound, the “C. albicans, diameter of ring of inhibition” value in the test on Candida albicans was 7.48. Moreover, the “A. fumigatus, diameter of ring of inhibition” value in the test on Aspergillus fumigatus was determined as 8.13. Moreover, the “A. niger, diameter of ring of inhibition” value in the test on Aspergillus niger was 10.97.

Take `C[C@@H]1[C@H](O)[C@@H](C)/C=C/C=C/C=C/C=C/C=C/C=C/C=C/[C@H](O[C@@H]2O[C@H](C)[C@@H](O)[C@H](N)[C@@H]2O)C[C@@H]2O[C@](O)(C[C@@H](O)C[C@@H](O)[C@H](O)CC[C@@H](O)C[C@@H](O)CC(=O)O[C@H]1C)C[C@H](O)[C@H]2C(=O)O` [Compound 13, Amphotericin B]: in the test with Saccharomyces cerevisiae, the “S. cerevisiae, diameter of ring of inhibition” value amounted to 8.39. The “C. albicans, diameter of ring of inhibition” value in the test on Candida albicans is 9.35. Also, the “A. fumigatus, diameter of ring of inhibition” value in the test with Aspergillus fumigatus is listed as 11.19. The “A. niger, diameter of ring of inhibition” value with Aspergillus niger is 17.86.

Regarding `CC1(C)S[C@@H]2[C@H](NC(=O)[C@H](N)c3ccccc3)C(=O)N2[C@H]1C(=O)O` [Compound 12, Ampicillin], in the test on Escherichia coli, the “E. coli, diameter of ring of inhibition, antimicrobial paper towels” value came to 17.13 and the “E. coli, diameter of ring of inhibition” value is given as 17.13. For the same compound, in test [1], the “P. hauseri, diameter of ring of inhibition, antimicrobial paper towels” value worked out at 19 and the “P. hauseri, diameter of ring of inhibition” value was 19.00. For the same compound, in the test with Staphylococcus aureus, the “S. aureus, diameter of ring of inhibition, antimicrobial paper towels” value was 28.8 and the “S. aureus, diameter of ring of inhibition” value stood at 28.80. Further, in the test on Bacillus cereus, the “B. cereus, diameter of ring of inhibition, antimicrobial paper towels” value is reported as 13.5 and the “B. cereus, diameter of ring of inhibition” value stood at 13.50.

Regarding `O=C(N[C@H](CO)[C@H](O)c1ccc([N+](=O)[O-])cc1)C(Cl)Cl` [Compound 11, Chloramphenicol], in the test on Escherichia coli, the “E. coli, diameter of ring of inhibition, antimicrobial paper towels” value was 32.25 and the “E. coli, diameter of ring of inhibition” value turned out to be 32.25. Moreover, in test [1], the “P. hauseri, diameter of ring of inhibition, antimicrobial paper towels” value is on record as 16.5 and the “P. hauseri, diameter of ring of inhibition” value turned out to be 16.50. In the test with Staphylococcus aureus, the “S. aureus, diameter of ring of inhibition, antimicrobial paper towels” value stood at 17.7 and the “S. aureus, diameter of ring of inhibition” value is 17.70. Further, in the test with Bacillus cereus, the “B. cereus, diameter of ring of inhibition, antimicrobial paper towels” value stood at 26.3 and the “B. cereus, diameter of ring of inhibition” value amounted to 26.30.

For the compound Penicillin [Compound 9], in the test on Escherichia coli, the “E. coli, diameter of ring of inhibition, antimicrobial paper towels” value was found to be 15.91 and the “E. coli, diameter of ring of inhibition” value came to 15.91. Also, in [1], the “P. hauseri, diameter of ring of inhibition, antimicrobial paper towels” value was determined as 11 and the “P. hauseri, diameter of ring of inhibition” value is 11.00. Also, in the test with Staphylococcus aureus, the “S. aureus, diameter of ring of inhibition, antimicrobial paper towels” value was 31.5 and the “S. aureus, diameter of ring of inhibition” value was 31.50.

As to `C[C@@H]1[C@H](O)[C@@H](C)/C=C/C=C/C=C/C=C/C=C/C=C/C=C/[C@H](O[C@@H]2O[C@H](C)[C@@H](O)[C@H](N)[C@@H]2O)C[C@@H]2O[C@](O)(C[C@@H](O)C[C@@H](O)[C@H](O)CC[C@@H](O)C[C@@H](O)CC(=O)O[C@H]1C)C[C@H](O)[C@H]2C(=O)O` [Compound 14, Amphotericin B], the “S. cerevisiae, diameter of ring of inhibition, antimicrobial paper towels” value in the test on Saccharomyces cerevisiae (setting [2]) is listed as 13.4. Moreover, the “S. cerevisiae, diameter of ring of inhibition” value in the test on Saccharomyces cerevisiae worked out at 10.80. The “C. albicans, diameter of ring of inhibition, antimicrobial paper towels” value in the test on Candida albicans (setting [2]) stood at 9.7. In addition, the “C. albicans, diameter of ring of inhibition” value in the test on Candida albicans amounted to 11.00. Further, in the test with Aspergillus fumigatus (setting [2]), the “A. fumigatus, diameter of ring of inhibition, antimicrobial paper towels” value is 9.4. Also, the “A. fumigatus, diameter of ring of inhibition” value in the test on Aspergillus fumigatus was 7.80. Also, the “A. niger, diameter of ring of inhibition, antimicrobial paper towels” value with Aspergillus niger (setting [2]) came out at 8.7. In addition, the “A. niger, diameter of ring of inhibition” value in the test on Aspergillus niger stood at 8.80.

For the compound `CN(C)[C@@H]1C(O)=C(C(N)=O)C(=O)[C@@]2(O)C(O)=C3C(=O)c4c(O)cccc4[C@@](C)(O)[C@H]3C[C@@H]12` [Compound 10, Tetracycline], in the test on Escherichia coli, the “E. coli, diameter of ring of inhibition, antimicrobial paper towels” value is 20.45 and the “E. coli, diameter of ring of inhibition” value is 20.45. The “P. aeruginosa, diameter of ring of inhibition, antimicrobial paper towels” value in the test on Pseudomonas aeruginosa (6 mm paper discs punched from paper towels, antibiotic control discs 10 or 30 ug) is recorded as 10.75. In addition, the “P. aeruginosa, diameter of ring of inhibition” value with Pseudomonas aeruginosa was found to be 10.75. Moreover, in test [1], the “P. hauseri, diameter of ring of inhibition, antimicrobial paper towels” value is reported as 29.5 and the “P. hauseri, diameter of ring of inhibition” value is 29.50. Also, in the test on Staphylococcus aureus, the “S. aureus, diameter of ring of inhibition, antimicrobial paper towels” value was found to be 23.3 and the “S. aureus, diameter of ring of inhibition” value is given as 23.30. In the test on Bacillus cereus, the “B. cereus, diameter of ring of inhibition, antimicrobial paper towels” value is 20.3 and the “B. cereus, diameter of ring of inhibition” value came out at 20.30.
